# Results taken from patent US20100028879A1, “Modulators of HSD17b7 for treating acne or hyperseborrhea” (GALDERMA RESEARCH & DEVELOPMENT, priority 2006, published 2010).
# Read-outs that look alike come from different tables or passages of the source.
# Tested on: HSD17B7 gene
# Conditions: gonadectomized mice, short-term treatment
# Protocol: The points Veh-24h-a and Veh-24h-b show the level of expression of HSD17B7 of gonadectomized mice untreated with DHT.
# The expression of the genes was analyzed on an Affymetrix station (microfluidic model; hybridization oven; scanner; computer) following the protocols provided by the company. Briefly, the total RNA isolated from the tissues was transcribed to cDNA. From the double-stranded cDNA, a cRNA labeled with biotin was synthesized using T7 polymerase and a precursor NTP conjugated to biotin. The cRNAs were then fragmented to small sized fragments. […] The Affymetrix chip is hybridized with the biotinylated cRNA, rinsed and then fluorescence labeled using a fluorophore conjugated to streptavidin. After washings, the chip is scanned and the results are calculated using the MAS5 software provided by Affymetrix. An expression value is obtained for each gene as well as the indication of the significance of the value obtained.
# B. Male mice were gonadectomized and were then treated with the vehicle or DHT. The preputial glands were removed for a period ranging up to 4 days (androgenic treatment alone—observation of a short-term kinetics). The RNA was isolated and the expression of the genes was analyzed by the Affymetrix technique using two different probe sets: 1417871_at (FIGS. 2A and 2C) and 1448865_at (FIGS. 2B and 2D).
smiles,measurement,setting,value
"C[C@]12CCC(=O)C[C@@H]1CC[C@@H]1[C@@H]2CC[C@]2(C)[C@@H](O)CC[C@@H]12 [DHT, Dihydrotestosterone]",mRNA for HSD17B7 in the mouse preputial gland,"kinetic study 15 minutes to 96 hours, effect visible at 24 and 96 hours, FIGS. 2A, 2B",moderately induced
same,mRNA for HSD17B7 in the mouse preputial gland,"kinetic study 1 hour to 24 hours, effect starting at 12 hours, well visible at 18 and 24 hours, FIGS. 2C, 2D",induced
